Laboratory results as given in patent US7618984B2, “Sulfonamide compound” (Asahi Kasei Pharma Corporation, priority 2005, dated 2009).

What follows are molecules tested on rabbit normal intraocular pressure (assay: Intraocular pressure reducing action (Test Example 2)). Details: Oryctolagus cuniculus, topical; 3 mM aqueous solution, 50 μl to the left eye; measured after 2, 4 and 6 hours; read-out: intraocular pressure reducing degree (max ΔIOP / intraocular pressure value immediately before administration × 100).
Type: in vivo, Japanese white rabbit
Experimental: A Japanese white rabbit having a body weight of about 2 kg was placed in a positioner and naturalized for one week before the experiment. An opthalmologic local anesthesant (Benoxil) was administered to both eyes, and then intraocular pressure was measured by using a tonometer (Classic 30, Solan). A 3 mM aqueous solution of a test compound was administered in a volume of 50 μl to the left eye, and the right eye was not treated (control eye). The intraocular pressure values were measured for the left and right eyes immediately before, and 2, 4 and 6 hours after the administration of the aqueous solution of the test compound, and the difference of the measured values for the left and right eyes was considered an intraocular pressure reduction value of the test medicament at each measurement time. The largest difference of the values for the left and right eyes among the measured values at the measurement times (after 2, 4 and 6 hours) was considered the maximum intraocular pressure reduction value (max ΔIOP) of each test medicament. The intraocular pressure reducing degree representing the intraocular pressure reducing action of each test medicament was calculated according to the following formula. Since rabbits show significant daily variation of intraocular pressure, daily variation is added when change of intraocular pressure is measured over time, and the intraocular pressure reducing action may be overestimated. Therefore, we used this calculation method of intraocular pressure reduction value in order to minimize the influence of the variation. Intraocular pressure reducing degree (%)=(max ΔIOP/Intraocular pressure value immediately before administration)×100
With `CN[C@H]1CCN(S(=O)(=O)c2cccc3c(N)ncc(Br)c23)C1` [Example 42-1, (S)-1-(1-Amino-4-bromo-5-isoquinolinesulfonyl)-3-(methylamino)pyrrolidine] the inhibition in vivo at 3000 µM was 5 to 10%.
`N[C@H]1CCN(S(=O)(=O)c2cccc3cncc(-c4cnoc4)c23)C1` [Example 24-1, (S)-3-Amino-1-[4-(4-isoxazolyl)-5-isoquinolinesulfonyl]pyrrolidine] was tested, and the inhibition in vivo at 3000 µM was 5 to 10%.
With `N[C@H]1CCN(S(=O)(=O)c2cccc3c(O)ncc(F)c23)C1` [Example 29-1, (S)-3-Amino-1-(1-hydroxy-4-fluoro-5-isoquinolinesulfonyl)pyrrolidine] the inhibition in vivo at 3000 µM was 10 to 20%.
In the case of `N[C@H]1CCN(S(=O)(=O)c2cccc3c(O)ncc(Cl)c23)C1` [Example 30-1, (S)-3-Amino-1-(1-hydroxy-4-chloro-5-isoquinolinesulfonyl)pyrrolidine], the inhibition in vivo at 3000 µM was no less than 20%.
`Nc1ncc(Cl)c2c(S(=O)(=O)N3CC[C@H](N)C3)cccc12` [Example 39-1, (S)-3-Amino-1-(1-amino-4-chloro-5-isoquinolinesulfonyl)pyrrolidine] gave an inhibition in vivo at 3000 µM of 10 to 20%.
`CN[C@H]1CCN(S(=O)(=O)c2cccc3c(N)ncc(Cl)c23)C1` [Example 40-1, (S)-1-(1-Amino-4-chloro-5-isoquinolinesulfonyl)-3-(methylamino)pyrrolidine] showed an inhibition in vivo at 3000 µM of 5 to 10%.
For `CN[C@@H]1CCN(S(=O)(=O)c2cccc3c(O)ncc(Cl)c23)C1` [Example 36-2, (R)-1-(1-Hydroxy-4-chloro-5-isoquinolinesulfonyl)-3-(methylamino)pyrrolidine], the inhibition in vivo at 3000 µM was 10 to 20%.
`O=S(=O)(c1cccc2c(O)ncc(Br)c12)N1CC[C@H](NCc2ccco2)C1` [Example 38-1, (S)-1-(1-Hydroxy-4-bromo-5-isoquinolinesulfonyl)-3-(2-furylmethylamino)pyrrolidine] was tested, and the inhibition in vivo at 3000 µM was 5 to 10%.
In the case of `CN[C@H]1CCN(S(=O)(=O)c2cccc3c(O)ncc(Br)c23)C1` [Example 35-1, (S)-1-(1-Hydroxy-4-bromo-5-isoquinolinesulfonyl)-3-(methylamino)pyrrolidine], the inhibition in vivo at 3000 µM was 5 to 10%.
`N#Cc1cncc2cccc(S(=O)(=O)N3CC[C@H](N)C3)c12` [Example 13-1, (S)-3-Amino-1-(4-cyano-5-isoquinolinesulfonyl)pyrrolidine] was tested, and the inhibition in vivo at 3000 µM was 5 to 10%.
